Assay results as given in patent publication US10093623B2, “Cyclic amides as MetAP-2 inhibitors” (MERCK PATENT GmbH, priority 2012, dated 2018).

What follows are compounds tested against MetAP-2 (Homo sapiens, UniProt P50579) (assay: MetAP-2 activity measurement (coupled enzymatic reactions, Met-Arg-Ser substrate, dianisidine detection at 450 nm)). Details: Inhibition of MetAP-2; read-out: IC50 enzyme.
Sequence of MetAP-2 (P50579 whole entry, species assumed): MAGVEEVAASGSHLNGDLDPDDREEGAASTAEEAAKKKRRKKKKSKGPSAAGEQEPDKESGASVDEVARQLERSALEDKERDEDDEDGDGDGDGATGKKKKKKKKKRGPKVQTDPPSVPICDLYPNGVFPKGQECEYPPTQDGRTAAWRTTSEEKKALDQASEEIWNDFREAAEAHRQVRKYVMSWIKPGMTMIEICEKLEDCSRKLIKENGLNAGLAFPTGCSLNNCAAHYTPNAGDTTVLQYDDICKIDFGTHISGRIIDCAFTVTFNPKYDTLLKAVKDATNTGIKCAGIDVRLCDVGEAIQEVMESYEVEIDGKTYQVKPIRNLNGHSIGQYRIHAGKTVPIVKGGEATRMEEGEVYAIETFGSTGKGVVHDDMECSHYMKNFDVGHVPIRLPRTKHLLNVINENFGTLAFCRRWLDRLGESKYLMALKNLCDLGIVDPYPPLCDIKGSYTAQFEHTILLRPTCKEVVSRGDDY
Type: biochemical
Method in brief: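 Rate read from the linear part of the 450 nm absorbance trace. Dianisidine oxidation by peroxidase reports H2O2 made when amino acid oxidase acts on methionine cleaved from MAS tripeptide, one mol dye per mol Met; extinction coefficient gives molar activity.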
`NC(=O)c1c[nH]c2ccc(N3CC[C@](O)(C(=O)NCc4cc(F)cc(Cl)c4)C3=O)cc12` [A238, 5-[(S)-3-(3-Chloro-5-fluorobenzylcarbamoyl)-3-hydroxy-2-oxopyrrolidin-1-yl]-1H-indole-3-carboxamide] gave an IC50 of 0.01 to 1 µM.
With `O=C1CCc2cc(N3CC[C@](O)(C(=O)NCc4ccc(Cl)cc4F)C3=O)ccc2N1` [A241, N-(4-Chloro-2-fluorobenzyl)-(S)-3-hydroxy-2-oxo-1-(2-oxo-1,2,3,4-tetrahydroquinolin-6-yl)-pyrrolidine-3-carboxamide] the IC50 was 0.01 to 1 µM.
`O=C1CCc2cc(N3CC[C@](O)(C(=O)NCc4ccc(F)cc4Cl)C3=O)ccc2N1` [A242, N-(2-Chloro-4-fluorobenzyl)-(S)-3-hydroxy-2-oxo-1-(2-oxo-1,2,3,4-tetrahydroquinolin-6-yl)-pyrrolidine-3-carboxamide] gave an IC50 of 0.01 to 1 µM.
`O=C1CCc2cc(N3CC[C@](O)(C(=O)NCc4c(F)ccc(F)c4Cl)C3=O)ccc2N1` [A244, N-(2-Chloro-3,6-difluorobenzyl)-(S)-3-hydroxy-2-oxo-1-(2-oxo-1,2,3,4-tetrahydroquinolin-6-yl)-pyrrolidine-3-carboxamide] gave an IC50 of 0.01 to 1 µM.
In the case of `O=C1CCc2cc(N3CC[C@](O)(C(=O)NCc4cc(F)c(F)cc4F)C3=O)ccc2N1` [A245, N-(2,4,5-Trifluorobenzyl)-(S)-3-hydroxy-2-oxo-1-(2-oxo-1,2,3,4-tetrahydroquinolin-6-yl)-pyrrolidine-3-carboxamide], the IC50 is reported as 0.01 to 1 µM.
Compound `O=C1CCc2cc(N3CC[C@](O)(C(=O)NCc4ccc(F)c(Cl)c4)C3=O)ccc2N1` [A247, N-(3-Chloro-4-fluorobenzyl)-(S)-3-hydroxy-2-oxo-1-(2-oxo-1,2,3,4-tetrahydroquinolin-6-yl)-pyrrolidine-3-carboxamide] has an IC50 of 0.01 to 1 µM.
`NC(=O)CN1CCC(O)(C(=O)NCc2cc(F)cc(Cl)c2)C1=O` (centres unmarked) [A248, N-(3-Chloro-5-fluorobenzyl)-1-carbamoylmethyl-3-hydroxy-2-oxopyrrolidine-3-carboxamide] gave an IC50 of 1 to 10 µM.
In the case of `O=C1CCc2cc(N3CC[C@](O)(C(=O)NCc4c(F)cc(Cl)cc4F)C3=O)ccc2N1` [A249, N-(4-Chloro-2,6-difluorobenzyl)-(S)-3-hydroxy-2-oxo-1-(2-oxo-1,2,3,4-tetrahydroquinolin-6-yl)-pyrrolidine-3-carboxamide], the IC50 is reported as 0.01 to 1 µM.
In the case of `O=C1CCc2cc(N3CC[C@](O)(C(=O)NCc4c(F)ccc(Cl)c4F)C3=O)ccc2N1` [A250, N-(3-Chloro-2,6-difluorobenzyl)-(S)-3-hydroxy-2-oxo-1-(2-oxo-1,2,3,4-tetrahydroquinolin-6-yl)-pyrrolidine-3-carboxamide], the IC50 is reported as 0.01 to 1 µM.
`O=C(NCc1cc(F)cc(F)c1)C1(O)CCCN(CC2CCC2)C1=O` (centres unmarked) [A252, N-(3,5-Difluorobenzyl)-1-cyclobutylmethyl-3-hydroxy-2-oxopiperidine-3-carboxamide] gave an IC50 of 1 to 10 µM.
Work on `O=C(NCc1cccc(F)c1)C1(O)CCCN(Cc2ccc(F)c(F)c2)C1=O` (centres unmarked) [A253, N-(3-Fluorobenzyl)-1-(3,4-difluorobenzyl)-3-hydroxy-2-oxo-piperidine-3-carboxamide] yielded an IC50 of 1 to 10 µM.
Compound `O=C(NCc1cccc(F)c1)[C@@]1(O)CCCN(Cc2cccc(F)c2F)C1=O` [A254, N-(3-Fluorobenzyl)-(S)-1-(2,3-difluorobenzyl)-3-hydroxy-2-oxo-piperidine-3-carboxamide] has an IC50 of 0.01 to 1 µM.
For `O=C(NCc1ccc(F)cc1)[C@@]1(O)CCCN(Cc2cccc(F)c2F)C1=O` [A255, N-(4-Fluorobenzyl)-(S)-1-(2,3-difluorobenzyl)-3-hydroxy-2-oxo-piperidine-3-carboxamide], the IC50 was 1 to 10 µM.
`O=C(NCc1cccc(F)c1)[C@@]1(O)CCCN(CC2CCCCC2)C1=O` [A256, N-(3-fluorobenzyl)-(S)-1-cyclohexylmethyl-3-hydroxy-2-oxopiperidine-3-carboxamide] gave an IC50 of 0.01 to 1 µM.
Compound `O=C(NCc1ccc(F)cc1)C1(O)CCCN(Cc2ccc(F)c(F)c2)C1=O` (centres unmarked) [A257, N-(4-Fluorobenzyl)-1-(3,4-difluorobenzyl)-3-hydroxy-2-oxo-piperidine-3-carboxamide] has an IC50 of 1 to 10 µM.
For `Cc1cc(CNC(=O)C2(O)CCCN(Cc3ccc(F)c(F)c3)C2=O)no1` (centres unmarked) [A258, N-(5-Methylisoxazol-3-ylmethyl)-1-(3,4-difluorobenzyl)-3-hydroxy-2-oxopiperidine-3-carboxamide], the IC50 was greater than 10 µM.
`O=C(NCc1ccccn1)[C@@]1(O)CCCN(Cc2cccc(F)c2F)C1=O` [A259, N-(Pyridin-2-ylmethyl)-(S)-1-(2,3-difluorobenzyl)-3-hydroxy-2-oxopiperidine-3-carboxamide] gave an IC50 greater than 10 µM.
With `O=C(NCc1ccccn1)[C@]1(O)CCCN(Cc2cccc(F)c2F)C1=O` [A260, N-(Pyridin-2-ylmethyl)-(R)-1-(2,3-difluorobenzyl)-3-hydroxy-2-oxopiperidine-3-carboxamide] the IC50 was greater than 10 µM.
`O=C(NCc1cccc(F)c1)[C@]1(O)CCCN(Cc2cccc(F)c2F)C1=O` [A261, N-(3-Fluorobenzyl)-(R)-1-(2,3-difluorobenzyl)-3-hydroxy-2-oxo-piperidine-3-carboxamide] gave an IC50 greater than 10 µM.
In the case of `O=C(NCc1ccc(F)cc1)[C@]1(O)CCCN(Cc2cccc(F)c2F)C1=O` [A262, N-(4-Fluorobenzyl)-(R)-1-(2,3-difluorobenzyl)-3-hydroxy-2-oxo-piperidine-3-carboxamide], the IC50 is reported as greater than 10 µM.
Work on `O=C(NCc1cccc(F)c1)[C@]1(O)CCCN(CC2CCCCC2)C1=O` [A263, N-(3-fluorobenzyl)-(R)-1-cyclohexylmethyl-3-hydroxy-2-oxopiperidine-3-carboxamide] yielded an IC50 greater than 10 µM.
Work on `O=C1CCc2cc(N3CC[C@](O)(C(=O)NCc4ccc(Cl)c(F)c4)C3=O)ccc2N1` [A265, N-(4-Chloro-3-fluorobenzyl)-(S)-3-hydroxy-2-oxo-1-(2-oxo-1,2,3,4-tetrahydroquinolin-6-yl)-pyrrolidine-3-carboxamide] yielded an IC50 of 1 to 10 µM.
`O=C(N1Cc2ccccc2C1)C1(O)CCN(c2ccccc2)C1=O` (centres unmarked) [A267, 3-(1,3-dihydroisoindole-2-carbonyl)-3-hydroxy-1-phenylpyrrolidin-2-one] showed an IC50 of 1 to 10 µM.
`O=C1N(Cc2ccccc2)CCC1(O)C(=O)N1Cc2ccccc2C1` (centres unmarked) [A268, 1-benzyl-3-(1,3-dihydroisoindole-2-carbonyl)-3-hydroxypyrrolidin-2-one] was tested, and the IC50 was greater than 10 µM.
Compound `O=C(NCc1cc(F)cc(Cl)c1)C1(O)CCN(Cc2nc3ccccc3[nH]2)C1=O` (centres unmarked) [A269, N-(3-chloro-5-fluorobenzyl)-1-(1H-benzimidazol-2-ylmethyl)-3-hydroxy-2-oxopyrrolidine-3-carboxamide] has an IC50 of 1 to 10 µM.
`O=C(NCc1cc(F)cc(Cl)c1)C1(O)CCN(Cc2nc3ccccc3s2)C1=O` (centres unmarked) [A270, N-(3-Chloro-5-fluorobenzyl)-1-benzothiazol-2-ylmethyl-3-hydroxy-2-oxopyrrolidine-3-carboxamide] gave an IC50 of 0.01 to 1 µM.
`O=C(O)CCN1CCC(O)(C(=O)NCc2cc(F)cc(Cl)c2)C1=O` (centres unmarked) [A271, 3-[3-(3-Chloro-5-fluorobenzylcarbamoyl)-3-hydroxy-2-oxopyrrolidin-1-yl]-propionic acid] was tested, and the IC50 was greater than 10 µM.
`Cn1cncc1CN1CCC(O)(C(=O)NCc2cc(F)cc(Cl)c2)C1=O` (centres unmarked) [A272, N-(3-Chloro-5-fluorobenzyl)-3-hydroxy-1-(3-methyl-3H-imidazol-4-ylmethyl)-2-oxo-pyrrolidine-3-carboxamide] gave an IC50 of 1 to 10 µM.
Work on `O=C(NCc1cc(F)cc(Cl)c1)C1(O)CCN(C[C@H]2CC[C@H](C(=O)O)CC2)C1=O` (some centres unmarked) [A273, 4-[3-(3-Chloro-5-fluorobenzylcarbamoyl)-3-hydroxy-2-oxopyrrolidin-1-yl-methyl]cyclohexanecarboxylic acid] yielded an IC50 of 1 to 10 µM.
For `O=C(NCc1cc(F)cc(Cl)c1)C1(O)CCN(C[C@H]2CC[C@@H](C(=O)O)CC2)C1=O` (some centres unmarked) [A274, 4-[3-(3-Chloro-5-fluorobenzylcarbamoyl)-3-hydroxy-2-oxopyrrolidin-1-yl-methyl]cyclohexanecarboxylic acid], the IC50 was 1 to 10 µM.
Work on `CCN1C[C@@H]2[C@H](C1)[C@H]2N1CCC(O)(C(=O)NCc2cc(F)cc(Cl)c2)C1=O` (stereo partly drawn) [A275, N-(3-Chloro-5-fluorobenzyl)-1-((1S,5R,6S)-3-ethyl-3-aza-bicyclo[3.1.0]hex-6-yl)-3-hydroxy-2-oxopyrrolidine-3-carboxamide] yielded an IC50 greater than 10 µM.
Compound `Cn1nccc1CN1CCC(O)(C(=O)NCc2cc(F)cc(Cl)c2)C1=O` (centres unmarked) [A276, N-(3-Chloro-5-fluorobenzyl)-3-hydroxy-1-(2-methyl-2H-pyrazol-3-ylmethyl)-2-oxopyrrolidine-3-carboxamide] has an IC50 of 1 to 10 µM.
For `O=C(NCc1cc(F)cc(Cl)c1)C1(O)CCN(Cc2cc[nH]n2)C1=O` (centres unmarked) [A277, N-(3-Chloro-5-fluorobenzyl)-3-hydroxy-2-oxo-1-(1H-pyrazol-3-ylmethyl)pyrrolidine-3-carboxamide], the IC50 was 0.01 to 1 µM.
Compound `CNC(=O)[C@H]1CC[C@H](CN2CCC(O)(C(=O)NCc3cc(F)cc(Cl)c3)C2=O)CC1` (some centres unmarked) [A278, N-(3-Chloro-5-fluorobenzyl)-3-hydroxy-1-(4-methylcarbamoyl-cyclohexylmethyl)-2-oxo-pyrrolidine-3-carboxamide] has an IC50 of 0.01 to 1 µM.
In the case of `O=C(NCc1cc(F)cc(Cl)c1)C1(O)CCN(Cc2c[nH]cn2)C1=O` (centres unmarked) [A279, N-(3-Chloro-5-fluorobenzyl)-3-hydroxy-1-(1H-imidazol-4-ylmethyl)-2-oxopyrrolidine-3-carboxamide], the IC50 is reported as 1 to 10 µM.
`Cc1ccc(CN2CCC(O)(C(=O)NCc3cc(F)cc(Cl)c3)C2=O)n1C` (centres unmarked) [A280, N-(3-Chloro-5-fluorobenzyl)-1-(1,5-Dimethyl-1H-pyrrol-2-ylmethyl)-3-hydroxy-2-oxo-pyrrolidine-3-carboxamide] was tested, and the IC50 was 1 to 10 µM.
`CS(=O)(=O)N1CC[C@H](N2CCC(O)(C(=O)NCc3cc(F)cc(Cl)c3)C2=O)C1` (stereo partly drawn) [A281, N-(3-Chloro-5-fluorobenzyl)-(S)-3-hydroxy-1′-methanesulfonyl-2-oxo[1,3′]bipyrrolidinyl-3-carboxamide] was tested, and the IC50 was 1 to 10 µM.
With `O=C(CN1CCC(O)(C(=O)NCc2cc(F)cc(Cl)c2)C1=O)NCCO` (centres unmarked) [A282, N-(3-Chloro-5-fluorobenzyl)-3-hydroxy-1-[(2-hydroxy-ethylcarbamoyl)methyl]-2-oxo-pyrrolidine-3-carboxamide] the IC50 was 1 to 10 µM.
